This note sets out measurements from US20240366813A1, “PEPTIDE-UREA DERIVATIVE, PHARMACEUTICAL COMPOSITION CONTAINING SAME AND APPLICATION THEREOF” (Bivision Pharmaceuticals, Inc., priority 0001, published 2024).

One series addresses PSMA protein (Homo sapiens (Human), UniProt Q04609). As to the kind of experiment: In vitro binding test of compound and PSMA protein (Biacore). The conditions noted are these: Biacore 8K, 15° C., 1:1 binding model, KD in M. The method, then:
A Biacore 8K (Cytiva) instrument was used to determine the binding affinity of disclosed compounds to the PSMA protein (Sinobiological). The PSMA protein was captured on SA chips. Before immobilizing the disclosed compounds (flow path 1 and 2, flow rate 10 μL/min), the PSMA protein was immobilized on flow path 2 by using flow buffer (10 μg/ml, flow rate 5 μL/min, injection time 600 s), and 1M NaCl was injected three times consecutively into 50 mM NaOH to condition the sensor surface. After each disclosed compounds injection, isopropanol in 1M NaCl and 50 mM NaOH was used for additional washing (flow path 1, 2, flow rate 10 μL/min, injection time 60 s).
All compounds were dissolved in 100% DMSO and diluted to 10 mM, and then diluted in test buffer (PBS, pH 7.4, 1 mM TCEP ([…]), 0.05% P20, 2% dimethyl sulfoxide) at an appropriate highest concentration. Analytes were run using the following conditions: 15° C. analysis temperature, analysis steps=all set to LMW kinetics; cycle type=single cycle (90 s contact time, 1800 s separation time, 30 ul/min flow rate, channels 1, 2); channel detection=2-1). Data were evaluated using Biacore Insight evaluation software, and data were fit to a 1:1 binding model.
Biacore results are shown in Table 12: pKD=−Log KD, where KD is the binding affinity of the compounds to PSMA protein measured by Biacore. KD is expressed by KD (M)=Kd (1/s)/Ka (1/Ms).
In general terms: Surface plasmon resonance follows binding to a sensor surface in real time, without labels.

For series [1], the system named is PSMA-positive (22RV1) tumor. The series is described as follows: Specificity test, PET/CT in PSMA-positive (22RV1) tumor-bearing mice with and without PMPA. In kind it is in vivo. The note with it: ^68Ga-E3 co-injected with PMPA (2 mg/Kg), FIG. 4. Here is the method: The ^68Ga-E3 radiolabeled compound was injected into the tail vein of PSMA-positive (22RV1) tumor-bearing mice (Jiangsu Huajing Molecular Imaging and Drug Research Institute Co., Ltd.) (about 7.4 MBq/mouse, specific activity: 22423.82 KBq/μg) ([…]). After administration, PET/CT was used for 1 h dynamic scanning, medium resolution whole body CT, and 10 min static scanning at 2 h and 3 h. It can be clearly seen from FIG. 3 that the drug is rapidly distributed into the animal body after administration, and the drug is rapidly metabolized by the kidneys and excreted from the body over time.
The next day, the mixture of ^68Ga-E3 and PSMA standard PMPA (2 mg/Kg) was injected into the tail vein of PSMA-positive tumor-bearing mice (about 7.4 MBq/mouse, specific activity: 22423.82 KBq/μg) (50 uCi). After administration, PET/CT was used for 1 h dynamic scanning, medium resolution whole body CT, and 10 min static scanning at 2 h and 3 h. The results are depicted in detailed in FIG. 4.
PMPA is a specific inhibitor of PSMA. When PMPA is administered together with ^68Ga-E3, ^68Ga-E3 and PMPA are rapidly distributed to various organs in the animal body. However, PMPA occupies the PSMA target on the tumor, thus preventing the binding of ^68Ga-E3 to PSMA on the tumor.

Another series relates to plasma protein. As to the kind of experiment: Determination of plasma protein binding (PPB). The note with it: ^177Lu-labeled, 37° C., 10 min, ultrafiltration, FIG. 6. In kind it is in vitro ADME. Here is the method:
Three EP tubes were taken, and 0.2 mL of plasma and 50 μL of ^177Lu-labeled compound were added to each tube. The mixture was incubated in a thermostat at 37° C. for 10 min, and then taken out and added to ultrafiltration tubes, respectively. The ultrafiltration tubes were centrifuged at 13,000 rpm for 45 min. 50 μL of normal saline was then added, and the mixture was centrifuged for another 15 minutes. The radioactive counts per minute of each tube casing and filtrate were then measured. PPB was calculated, and the mean of 3 tubes was recorded. PPB=[(supernatant counts-background counts)]/(subnatant counts+supernatant counts−2*background counts)]*100.

Another series relates to 22rv1 xenograft tumor. As to the kind of experiment: Pharmacodynamic study in 22rv1 mouse xenograft tumor model (effect example 11). In kind it is in vivo, mice. The conditions noted are these: for TGITV (relative tumor inhibition rate): Day 19; for Tumor volume, Administration in groups Day 19: mean ± standard error.
For another series, the system named is LNCAP cells. The series is described as follows: Cell binding test on LNCAP cells. In kind it is cell-based. The note with it: ^177Lu-labeled, on ice 2 hours, FIG. 1. The method, then: LNCAP cells in the logarithmic growth phase (Obio Technology (Shanghai) Corp., Ltd.) were made into a cell suspension. The cell suspension was adjusted to a cell density of 2×10^5/ml and inoculated 1 mL into a 24-well cell culture plate. Cells were incubated in an incubator at 37° C. for 48 hours. Three hours before the test, the medium was replaced with serum-free RPMI1640 medium (NEWZERUM), the cell culture medium was aspirated, and the cells were washed once with PBS. Serum-free RPMI1640 medium was used to prepare ^177Lu-E series compounds at concentrations of 32, 16, 8, 4, 1, 0.5, 0.1, 0.02, 0.01, 0.002 uCi/mL. The original medium was discarded, and then 1 mL of the prepared solution containing ^177Lu-E series compounds was added to each well. The plate was placed on ice for 2 hours, and then the cells were washed three times with 0.5 mL of ice-cold PBS. The washing solution was aspirated, and the cells were lysed with 0.5 mL of 1M NaOH and washed twice with 0.5 mL of PBS, and the sodium hydroxide (0.5 mL) and PBS (0.5 mL×2) solutions were collected. The uptake counts were determined.

The nature of series [2]: Determination of Log P (n-octanol/water). In kind it is physicochemical. The conditions noted are these: room temperature, FIG. 5. Here is the method:
Three EP tubes were taken, and 0.5 mL of saturated n-octanol and 480 μL of ultrapure water were added into each EP tube. 20 μL (about 1 MBq) solution of E series compounds and reference compound were then added respectively. The mixture was shaken evenly and then centrifuged at room temperature (2000 r/min, 5 min, centrifugal radius: 10 cm). 100 μL was taken from the lipid layer and aqueous layer of each tube, and the radioactive counts per minute of the two phases were measured. The Log P value was calculated and the results were averaged.

Setting [3] is: 300 μCi of ^177Lu-labeled test sample.
Setting [4] is: 600 μCi of ^177Lu-labeled test sample.

Chain of PSMA protein (Q04609 whole entry): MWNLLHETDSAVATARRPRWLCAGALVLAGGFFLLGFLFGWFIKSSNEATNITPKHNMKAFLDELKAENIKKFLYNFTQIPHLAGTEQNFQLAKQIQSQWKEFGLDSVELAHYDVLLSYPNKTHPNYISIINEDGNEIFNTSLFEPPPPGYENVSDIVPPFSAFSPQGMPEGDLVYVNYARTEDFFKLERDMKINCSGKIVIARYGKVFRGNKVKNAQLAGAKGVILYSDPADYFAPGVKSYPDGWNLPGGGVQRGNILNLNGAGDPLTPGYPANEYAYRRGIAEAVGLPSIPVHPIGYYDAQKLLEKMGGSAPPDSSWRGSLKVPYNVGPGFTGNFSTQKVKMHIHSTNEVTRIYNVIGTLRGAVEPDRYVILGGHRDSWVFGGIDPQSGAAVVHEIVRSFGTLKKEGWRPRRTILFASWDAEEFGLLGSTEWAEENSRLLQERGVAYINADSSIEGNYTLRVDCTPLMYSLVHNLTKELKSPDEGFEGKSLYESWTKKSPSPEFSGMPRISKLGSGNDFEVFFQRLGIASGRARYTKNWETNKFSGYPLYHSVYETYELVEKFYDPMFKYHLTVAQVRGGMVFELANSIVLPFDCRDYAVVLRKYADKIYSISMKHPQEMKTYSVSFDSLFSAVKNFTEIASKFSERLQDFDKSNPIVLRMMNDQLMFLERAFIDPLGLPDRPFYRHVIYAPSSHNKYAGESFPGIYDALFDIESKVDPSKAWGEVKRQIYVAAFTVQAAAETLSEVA

With `O=C(O)CC[C@H](NC(=O)NC(CCCCNC(=O)[C@H](Cc1ccc2ccccc2c1)NC(=O)c1ccc2c(c1)CCN(C(=O)CN1CCN(CC(=O)O)CCN(CC(=O)O)CCN(CC(=O)O)CC1)C2)C(=O)O)C(=O)O` (stereo partly shown) [Compound E3], the “pkD (pKD=−Log KD, binding affinity to PSMA protein)” value on PSMA protein is on record as 9.26. For the same compound, the “specificity against PSMA” value in series [1] is “high specificity”. The PPB binding rate entry in the series on plasma protein is recorded as “extremely high”. Also, in the series with 22rv1 xenograft tumor (setting [3]), the “TGITV (relative tumor inhibition rate)” value is on record as 71.00% and the “Tumor volume, Administration in groups Day 19” value was 590.66 ± 103.97 mm^3. Also, in the series on 22rv1 xenograft tumor (setting [4]), the “TGITV (relative tumor inhibition rate)” value came to 80.42% and the “Tumor volume, Administration in groups Day 19” value is 447.12 ± 47.84 mm^3.

Consider `O=C(O)CC[C@H](NC(=O)N[C@@H](CCCCNC(=O)[C@H](Cc1ccc2ccccc2c1)NC(=O)C1CCC(NC(=O)CN2CCN(CC(=O)O)CCN(CC(=O)O)CCN(CC(=O)O)CC2)CC1)C(=O)O)C(=O)O` (stereo partly shown) [Compound E26], for which the “pkD (pKD=−Log KD, binding affinity to PSMA protein)” value at PSMA protein is on record as 9.44. In addition, the cell binding ability result in the series with LNCAP cells is given as “excellent cell binding ability”. For the same compound, the “lipophilicity (Log P) compared with the reference compound PSMA-617” value in series [2] was “better lipophilicity”.
